Measured values reported in patent US8288381B2, “N-9 substituted purine compounds, compositions and methods of use” (Genentech, Inc., priority 2009, dated 2012).

Tests used:
[1] = target: mTOR enzyme (mTOR(1360-2549)+GBL) (Homo sapiens, UniProt P42345); assay: In vitro mTOR kinase assay (TR-FRET); assay type: biochemical; conditions: Ki apparent, Morrison ATP-competitive tight binding equation; 8 uM ATP, 0.25 nM mTOR+GBL; read-out: activity level (Ki) in the mTOR kinase assay
Experimental: The kinase activity of mTOR enzyme is assessed by incubating purified recombinant enzyme (mTOR(1360-2549)+GBL, prepared in-house) in a reaction mixture containing ATP, MnCl2, and a fluorescently labeled mTOR substrate, e.g., GFP-4E-BP1 (Invitrogen, product #PR8808A). The reaction is stopped by an addition of a Terbium-labeled phospho-specific antibody, e.g., Tb-labeled anti-p4E-BP1 T37/T46, (Invitrogen, product #PR8835A), EDTA, and TR-FRET buffer solution (Invitrogen, Product #PR3756B). Product formation is detected by way of time-resolved fluorescence resonance energy transfer (TR-FRET), which occurs when the phosphorylated substrate and labeled antibody are in close proximity due to phospho-specific binding. Enzymatic activity is measured as an increase in TR-FRET signal using a Perkin Elmer Envision plate reader. The assay is performed in a 384-well Proxiplate Plus (Perkin Elmer. Product #6008269) using the following protocol:
Compound activity is tested in 10 point dose curves starting at the highest final concentration of 10 uM. They are serially diluted in 100% DMSO prior to further dilution with assay buffer. The reaction mixture (8 uls) containing 0.25 nM mTOR+GBL enzyme, 400 nM GFP-4E-BP1, 8 uM ATP, 50 mM Hepes pH 7.5, 0.01% Tween 20, 10 mM MnCl2, 1 mM EGTA, 1 mM DTT, 1% DMSO (+/−compound) is incubated at room temperature for 30 minutes. 8 μL of solution containing 2 nM Tb-anti-p4E-BP1 antibody & 10 mM EDTA diluted TR-FRET buffer is then added and incubated for 30 minutes to stop the reaction. The plate is scanned with the Envision plate reader. Ki values are calculated in Assay Explorer using the Morrison ATP-competitive tight binding equation for Ki apparent determination.

PC3 cells = assay: In vitro cell proliferation assay; assay type: cell-based; conditions: Homo sapiens, PC-3; with PC3 cells
Experimental: Efficacy of Formula I compounds were measured by a cell proliferation assay employing the following protocol:
1. An aliquot of 20 μl of cell culture containing about 10^3 cells (PC3 or MDAMB361.1) in medium was deposited in each well of a 384-well, opaque-walled plate.
2. Control wells were prepared containing medium and without cells; Cells were allowed to settle overnight.
3. The compound was added to the experimental wells and incubated for 3 days.
4. The plates were equilibrated to room temperature for approximately 30 minutes.
5. A volume of CellTiter-Glo Reagent equal to the volume of cell culture medium present in each well was added.
6. The contents were mixed for 2 minutes on an orbital shaker to induce cell lysis.
7. The plate was incubated at room temperature for 20 minutes to stabilize the luminescence signal.
8. Luminescence was recorded and reported in graphs as RLU=relative luminescence units.
Alternatively, cells were seeded at optimal density in a 96 well plate and incubated for 4 days in the presence of test compound. Alamar Blue™ was subsequently added to the assay medium, and cells were incubated for 6 h before reading at 544 nm excitation, 590 nm emission. IC50 values were calculated using a sigmoidal dose response curve fit.

[2] = system: AKT serine-473 phosphorylation in PC-3 cells; assay: In vitro phospho-AKT serine 473 cellular assay; assay type: cell-based; conditions: Homo sapiens, 0.5 h; PC-3 cells stimulated with EGF, 30 minutes compound incubation; read-out: EC50 activity level (50% decrease of S473 AKT phosphorylation)
Experimental: The assay measures a test compound's inhibition of AKT serine-473 phosphorylation in human prostate adenocarcinoma derived PC-3 (ATCC CRL-1435) cells that have been stimulated with epidermal growth factor (EGF).
The PC-3 cell line is maintained in RPMI1640 media supplemented with 10% FBS, 2 mM Glutamine, and 10 mM HEPES pH 7.4 at 37° C. in a 5% CO2 humidified incubator.
Cells are seeded in 384-well plates at 7,000 cells/well in 50 μl growth media. After 24 hours, growth media is removed and replaced with RPMI1640 containing no FBS. Cells are treated with 10 concentrations of test compounds or DMSO alone for controls (final DMSO concentration 0.5%) and incubated at 37° C. for 30 minutes. Cells are then stimulated for 10 minutes with 100 ng/ml EGF (final concentration). One column of controls is not stimulated with EGF to observe the signal ratio between stimulated and non-stimulated cells. After 10 minutes, compounds and stimulation media are removed and replaced with 25 μl lysis buffer containing protease inhibitors and phosphatase inhibitors. This buffer contains detergent to bring about cellular disruption. […] Following the transfer of lysate to the MSD plate, AKT in the lysate is captured on the coated antibody by incubation on a shaker at 4° C. for 16 hours. Following the capture step the plate is washed and then incubated for two hours with an antibody to S473 phosphorylated AKT which is conjugated with a Sulfo-Tag. This tag gives a signal when in proximity to the electrode on the base of the MSD plate. Binding the tagged antibody to the captured protein allow detection on a MSD reader.
The EC50 is defined as the concentration at which a given compound achieves 50% decrease of the measured levels of S473 AKT phosphorylation. EC50 values are calculated using MDL Assay Explorer 3.0.1.8 fitting a sigmoidal curve with a variable slope.

Chain of mTOR enzyme (mTOR(1360-2549)+GBL) (P42345 1360-2549): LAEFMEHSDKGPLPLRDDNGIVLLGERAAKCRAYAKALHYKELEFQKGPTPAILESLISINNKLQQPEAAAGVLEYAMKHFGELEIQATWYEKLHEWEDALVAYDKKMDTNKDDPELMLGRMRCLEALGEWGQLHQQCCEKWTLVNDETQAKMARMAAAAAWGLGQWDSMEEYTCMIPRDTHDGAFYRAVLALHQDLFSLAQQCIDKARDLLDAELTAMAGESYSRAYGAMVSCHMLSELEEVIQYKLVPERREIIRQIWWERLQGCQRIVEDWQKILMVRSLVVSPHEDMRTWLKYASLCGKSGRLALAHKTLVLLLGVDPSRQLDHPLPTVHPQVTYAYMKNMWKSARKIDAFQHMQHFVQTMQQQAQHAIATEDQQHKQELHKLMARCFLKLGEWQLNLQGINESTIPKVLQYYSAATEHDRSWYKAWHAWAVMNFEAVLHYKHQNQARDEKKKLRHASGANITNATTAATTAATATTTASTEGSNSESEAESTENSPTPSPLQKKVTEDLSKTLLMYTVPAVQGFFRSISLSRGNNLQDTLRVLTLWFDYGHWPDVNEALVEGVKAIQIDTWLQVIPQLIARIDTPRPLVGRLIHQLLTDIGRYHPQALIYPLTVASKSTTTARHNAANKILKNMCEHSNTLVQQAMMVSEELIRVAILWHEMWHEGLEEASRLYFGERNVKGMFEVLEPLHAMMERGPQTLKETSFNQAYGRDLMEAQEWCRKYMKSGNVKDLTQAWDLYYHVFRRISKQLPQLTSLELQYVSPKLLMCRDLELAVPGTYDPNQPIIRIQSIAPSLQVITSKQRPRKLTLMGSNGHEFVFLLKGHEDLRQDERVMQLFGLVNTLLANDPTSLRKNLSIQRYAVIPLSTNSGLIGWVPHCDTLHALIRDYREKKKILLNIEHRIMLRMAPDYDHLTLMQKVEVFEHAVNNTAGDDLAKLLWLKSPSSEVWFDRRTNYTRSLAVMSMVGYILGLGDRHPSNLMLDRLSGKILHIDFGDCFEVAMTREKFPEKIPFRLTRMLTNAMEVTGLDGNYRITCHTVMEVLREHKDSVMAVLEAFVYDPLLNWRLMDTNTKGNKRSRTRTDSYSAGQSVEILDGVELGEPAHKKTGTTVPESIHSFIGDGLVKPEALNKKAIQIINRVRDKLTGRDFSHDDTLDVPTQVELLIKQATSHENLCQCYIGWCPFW
Chain of mTOR enzyme (mTOR(1360-2549)+GBL) (Q9BVC4 whole entry partner): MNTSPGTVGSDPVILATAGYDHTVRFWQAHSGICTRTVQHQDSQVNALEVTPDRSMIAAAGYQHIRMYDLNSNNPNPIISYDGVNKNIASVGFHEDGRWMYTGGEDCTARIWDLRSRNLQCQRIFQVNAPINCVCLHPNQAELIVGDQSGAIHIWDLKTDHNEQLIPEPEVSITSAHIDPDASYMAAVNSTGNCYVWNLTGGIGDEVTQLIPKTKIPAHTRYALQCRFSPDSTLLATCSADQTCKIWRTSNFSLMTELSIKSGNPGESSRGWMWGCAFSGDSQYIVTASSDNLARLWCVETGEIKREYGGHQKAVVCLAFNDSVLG

CCNC(=O)Nc1ccc(-c2nc(N3CCOC[C@@H]3C)c3nc(C4(O)COC4)n(C)c3n2)cc1 [Compound 101, (S)-1-ethyl-3-(4-(8-(3-hydroxyoxetan-3-yl)-9-methyl-6-(3-methylmorpholino)-9H-purin-2-yl)phenyl)urea] showed a Ki [1] of 7 nM, an IC50 (PC3 cells) of 282 nM and an EC50 [2] of 30 nM.
Molecule CCNC(=O)Nc1ccc(-c2nc(N3CCOC[C@@H]3C)c3nc(C4CC4)n(C)c3n2)cc1 [Compound 102, (S)-1-(4-(8-cyclopropyl-9-methyl-6-(3-methylmorpholino)-9H-purin-2-yl)phenyl)-3-ethylurea] has a Ki [1] of 8 nM, an IC50 (PC3 cells) of 207 nM and an EC50 [2] of 37 nM.
In the case of CCNC(=O)Nc1ccc(-c2nc(N3CCOC[C@@H]3C)c3nc(C4(O)CCOCC4)n(C)c3n2)cc1 [Compound 103, (S)-1-ethyl-3-(4-(8-(4-hydroxytetrahydro-2H-pyran-4-yl)-9-methyl-6-(3-methylmorpholino)-9H-purin-2-yl)phenyl)urea], the Ki [1] is reported as 5 nM, the IC50 (PC3 cells) is reported as 120 nM and the EC50 [2] is reported as 29 nM.
For CCNC(=O)Nc1ccc(-c2nc(N3CCOC[C@@H]3C)c3nc(C4(O)CCOCC4)n(CC)c3n2)cc1 [Compound 104, (S)-1-ethyl-3-(4-(9-ethyl-8-(4-hydroxytetrahydro-2H-pyran-4-yl)-6-(3-methylmorpholino)-9H-purin-2-yl)phenyl)urea], the Ki [1] was 4 nM, the IC50 (PC3 cells) was 115 nM and the EC50 [2] was 10 nM.
In the case of CCNC(=O)Nc1ccc(-c2nc(N3CCOC[C@@H]3C)c3nc(C4(O)CNC4)n(C)c3n2)cc1 [Compound 105, (S)-1-ethyl-3-(4-(8-(3-hydroxyazetidin-3-yl)-9-methyl-6-(3-methylmorpholino)-9H-purin-2-yl)phenyl)urea], the Ki [1] is reported as 74 nM.
With CCNC(=O)Nc1ccc(-c2nc(N3CCOC[C@@H]3C)c3nc(C4CC4)n(CC)c3n2)cc1 [Compound 106, (S)-1-(4-(8-cyclopropyl-9-ethyl-6-(3-methylmorpholino)-9H-purin-2-yl)phenyl)-3-ethylurea] the Ki [1] was 8 nM, the IC50 (PC3 cells) was 441 nM and the EC50 [2] was 15 nM.
In the case of CCNC(=O)Nc1ccc(-c2nc(N3CCOC[C@@H]3C)c3nc(-c4cncnc4)n(CC)c3n2)cc1 [Compound 107, (S)-1-ethyl-3-(4-(9-ethyl-6-(3-methylmorpholino)-8-(pyrimidin-5-yl)-9H-purin-2-yl)phenyl)urea], the Ki [1] is reported as 3 nM, the IC50 (PC3 cells) is reported as 112 nM and the EC50 [2] is reported as 7 nM.
CCNC(=O)Nc1ccc(-c2nc(N3CCOC[C@@H]3C)c3nc(C4(F)COC4)n(C)c3n2)cc1 [Compound 108, (S)-1-ethyl-3-(4-(8-(3-fluorooxetan-3-yl)-9-methyl-6-(3-methylmorpholino)-9H-purin-2-yl)phenyl)urea] showed a Ki [1] of 3 nM, an IC50 (PC3 cells) of 232 nM and an EC50 [2] of 9 nM.
Work on CCNC(=O)Nc1ccc(-c2nc(N3CCOC[C@@H]3C)c3nc(C4(F)COC4)n(CC)c3n2)cc1 [Compound 109, (S)-1-ethyl-3-(4-(8-(3-fluorooxetan-3-yl)-9-ethyl-6-(3-methylmorpholino)-9H-purin-2-yl)phenyl)urea] yielded a Ki [1] of 3 nM, an IC50 (PC3 cells) of 218 nM and an EC50 [2] of 8 nM.
In the case of CCNC(=O)Nc1ccc(-c2nc(N3CCOC[C@@H]3C)c3nc(C4(F)CCOCC4)n(CC)c3n2)cc1 [Compound 110, (S)-1-ethyl-3-(4-(9-ethyl-8-(4-fluorotetrahydro-2H-pyran-4-yl)-6-(3-methylmorpholino)-9H-purin-2-yl)phenyl)urea], the Ki [1] is reported as 5 nM, the IC50 (PC3 cells) is reported as 163 nM and the EC50 [2] is reported as 5 nM.
CCNC(=O)Nc1ccc(-c2nc(N3CCOC[C@@H]3C)c3nc(C4(O)COC4)n(CC)c3n2)cc1 [Compound 111, (S)-1-ethyl-3-(4-(9-ethyl-8-(3-hydroxyoxetan-3-yl)-6-(3-methylmorpholino)-9H-purin-2-yl)phenyl)urea] was tested, and the Ki [1] was 4 nM, the IC50 (PC3 cells) was 269 nM and the EC50 [2] was 4 nM.
Work on CCn1c(C2CC2)nc2c(N3CCOC[C@@H]3C)nc(-c3ccc(Nc4cccc(=O)[nH]4)cc3)nc21 [Compound 112, (S)-6-(4-(8-cyclopropyl-9-ethyl-6-(3-methylmorpholino)-9H-purin-2-yl)phenylamino)pyridin-2(1H)-one] yielded a Ki [1] of 6 nM, an IC50 (PC3 cells) of 853 nM and an EC50 [2] of 6 nM.
With CCn1c(C2CC2)nc2c(N3CCOC[C@@H]3C)nc(-c3ccc(NC(=O)NC4COC4)cc3)nc21 [Compound 113, (S)-1-(4-(8-cyclopropyl-9-ethyl-6-(3-methylmorpholino)-9H-purin-2-yl)phenyl)-3-(oxetan-3-yl)urea] the Ki [1] was 8 nM, the IC50 (PC3 cells) was 1700 nM and the EC50 [2] was 8 nM.
